In patent EP1377579B1 (Aventis Pharmaceuticals Inc., priority 2000, dated 2002):
pIC50: −log10 of the molar value.

Legend:
cdk4/cyclin D1 = cdk4/cyclin D1 (Homo sapiens, UniProt P11802); assay: Cyclin-dependent kinase assay, cdk4/cyclin D1; assay type: biochemical; conditions: cyclin D1/cdk4; GST-pRb substrate, 10 µM ATP
NCI-H460 = assay: In vitro proliferation assay (MTT), NCI-H460; assay type: cell-based; conditions: Homo sapiens, NCI-H460; MTT assay; value (SD, n) where given; read-out: H-460 Lung (IC50 µM)
Summary of the method: (§1)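 Cells in RPMI 1640 with 5 % fetal bovine serum were seeded at 1000 to 2500 cells/well and allowed to attach overnight. After 3 days of compound exposure, MTT was added for 2 to 4 hr at 37 C. The dye was dissolved in DMSO, absorbance read at 570 nm, and IC50s derived.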

HL-60 = assay: In vitro proliferation assay (MTT), HL-60; assay type: cell-based; conditions: Homo sapiens, HL-60; MTT assay; value (SD, n) where given; read-out: HL-60 Leuk. (IC50 µM)
Summary of the method: as §1

PC-3 = assay: In vitro proliferation assay (MTT), PC-3; assay type: cell-based, human; conditions: Homo sapiens, PC-3, MTT assay; value (SD, n) where given; read-out: PC-3 Prostate (IC50 µM)
Summary of the method: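 Cells were seeded at 1000 to 2500 cells/well, allowed to attach overnight, then exposed to test compounds for 3 days. Viable cells were estimated by MTT dye reduction, with dye solubilized in DMSO and absorbance read at 570 nm; IC50s derived from raw data.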

[1] = tested on: PC-3 Human Prostate Tumors; assay: PC-3 human prostate tumor xenograft in nude mice; assay type: in vivo; design: unit not given here; conditions: Table 4
Summary of the method: (§2)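 Subcutaneous HL-60 (5 x10^5 cells) or PC-3 (5 x 10^6 cells) xenografts in nude mice; ip dosing qd 5x/wk from 50–100 mm^3 tumors, at MTD and 1/3 MTD, ~3 wk (HL-60) or ~5 wk (PC-3). Caliper tumor volume ½(a x b2) twice weekly; body weight weekly.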

HL-60 Human Leukemia = assay: HL-60 human leukemia xenograft in nude mice; assay type: in vivo; design: key: tumor volume = ½(a × b²) from caliper diameters, in mm^3; conditions: Table 4
Summary of the method: as §2

[2] = Red blood cell binding, mouse whole blood; assay type: in vitro ADME; conditions: 30 minutes at 37°C, 500 ng/ml
Description: Compounds, including one positive control, are assessed for red blood cell (RBC) uptake, using a modified procedure based on the protocol reported in Sun, J.X.S., et al. High-performance liquid chromatographic analysis, plasma protein binding and red blood cell partitioning of phenprobamate. Biopharmaceutics and Drug Disposition, 8 (1987) 341-351.
Briefly, RBC uptake is evaluated by comparison of the levels in spiked plasma (n=3) and plasma isolated from spiked whole blood (n=3). Compounds are incubated with human and mouse whole blood, respectively, for 30 minutes at 37°C using a nominal concentration of 500 ng/ml. Following centrifugation, the plasma is removed and submitted for analysis. Each compound is also spiked into blank plasma at a nominal concentration of 500 ng/ml, and submitted for analysis. Levels in the two plasma samples (Cp' and Cp in the equation below) and the blood hematocrit are used to determine the red blood cell to plasma ratio (Crbc/Cp). (Crbc)/(Cp) = (Cpʹ)/(Cp•H)-((1-H))/(H) [formula] In equation 1, Cp' is the level of drug in the spiked "blank" plasma, Cp is the level of drug in the plasma of spiked whole blood, and H is the hematocrit. The hematocrit values are determined as 0.4 for human whole blood and 0.41 for mouse whole blood. The samples are analyzed with ESI LC/MS, using positive ion detection with an internal standard.
The red blood cell to plasma ratio is determined for each compound using equation 1. Tables 6 and 7 summarize the respective mean Crbc/Cp values and standard deviations for mouse and human whole blood, respectively, in descending order based on the red blood cell to plasma ratio, where"*" denotes Positive Control, and "ND" denotes Not Determined. MDL 108552 is included as a positive control for red blood cell uptake. Table 6. Red Blood Cell to Plasma Ratio for compounds in mouse whole blood

cdk4/cyclin D1, sequence (P11802 whole entry): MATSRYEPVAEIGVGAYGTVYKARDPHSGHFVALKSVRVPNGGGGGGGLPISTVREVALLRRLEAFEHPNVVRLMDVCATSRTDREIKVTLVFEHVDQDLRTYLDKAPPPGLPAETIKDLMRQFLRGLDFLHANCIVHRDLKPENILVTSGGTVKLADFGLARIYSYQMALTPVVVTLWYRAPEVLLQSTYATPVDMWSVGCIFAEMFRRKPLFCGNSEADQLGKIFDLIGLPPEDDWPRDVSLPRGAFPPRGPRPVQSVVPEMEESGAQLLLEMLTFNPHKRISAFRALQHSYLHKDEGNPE
cdk4/cyclin D1, sequence (P24385 whole entry partner): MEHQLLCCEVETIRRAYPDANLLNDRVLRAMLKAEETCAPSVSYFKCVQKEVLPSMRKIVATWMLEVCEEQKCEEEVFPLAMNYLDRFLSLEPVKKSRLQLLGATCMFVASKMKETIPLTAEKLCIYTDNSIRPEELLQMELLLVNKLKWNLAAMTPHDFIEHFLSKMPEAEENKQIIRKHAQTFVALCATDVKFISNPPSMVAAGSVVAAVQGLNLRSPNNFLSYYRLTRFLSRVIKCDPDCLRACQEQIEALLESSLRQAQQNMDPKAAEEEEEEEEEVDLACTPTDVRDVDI

Row | Compound | pIC50 (cdk4/cyclin D1) | IC50 (NCI-H460) [µM] | IC50 (HL-60) [µM] | IC50 (PC-3) [µM] | PC-3 Mean Vol. ± SD ([1]; dose 3 mg/kg ip) | PC-3 Mean Vol. ± SD ([1]; dose 10 mg/kg ip) | HL60 Mean Vol. ± SD (HL-60 Human Leukemia; dose 3 mg/kg ip) | HL60 Mean Vol. ± SD (HL-60 Human Leukemia; dose 10 mg/kg ip) | Mean Red Blood Cell to Plasma Ratio [2] | PC-3 Mean Vol. ± SD ([1]; dose 0.3 mg/kg ip) | PC-3 Mean Vol. ± SD ([1]; dose 1 mg/kg ip) | HL60 Mean Vol. ± SD (HL-60 Human Leukemia; dose 0.3 mg/kg ip) | HL60 Mean Vol. ± SD (HL-60 Human Leukemia; dose 1 mg/kg ip)
1 | Cl.Cl.N#Cc1ccc(S(=O)(=O)N2CCC(Nc3nc(N[C@H]4CC[C@H](N)CC4)nc4c3ncn4C3CCCC3)CC2)cc1 [compound 109, trans-N^2-(4-Amino-cyclohexyl)-9-cyclopentyl-N^6-[1-(4-cyano-benzenesulfonyl)-piperidin-4-yl]-9H-purine-2,6-diamine dihydrochloride] | 7.92 | 0.25 | 0.12 | 0.32 | 1807 ± 1388 | 979 ± 734 | 2597 ± 2240 | 3466 ± 3730 | 2.4 |  |  |  | 
2 | COC(=O)c1ccccc1S(=O)(=O)N1CCC(Nc2nc(N[C@H]3CC[C@H](N)CC3)nc3c2ncn3C2CCCC2)CC1.Cl.Cl [compound 111, trans-2-{4-[2-(4-Amino-cyclohexylamino)-9-cyclopentyl-9H-purin-6-ylamino]-piperidine-1-sulfonyl}-benzoic acid methyl ester dihydrochloride] | 7.29 | 0.28 | 0.38 | 0.76 | 1083 ± 704 | 2114 ± 1320 | 3798 ± 2431 | 2387 ± 1282 | 2.2 |  |  |  | 
3 | Cl.Cl.N[C@H]1CC[C@H](Nc2nc(NC3CCN(S(=O)(=O)c4cccc(C(F)(F)F)c4)CC3)c3ncn(C4CCCC4)c3n2)CC1 [compound 112, trans-N^2-(4-Amino-cyclohexyl)-9-cyclopentyl-N^6-[1-(3-trifluoromethyl-benzenesulfonyl)-piperidin-4-yl]-9H-purine-2,6-diamine dihydrochloride] | 6.65 | 0.07 | 0.18 | 0.16 |  |  |  |  | 2.4 | 1302 ± 869 | 1155 ± 872 | 5413 ± 2845 | 4170 ± 3111
4 | Cl.Cl.N[C@H]1CC[C@H](Nc2nc(NC3CCN(C(=O)Nc4ccc(C(F)(F)F)cc4)CC3)c3ncn(C4CCCC4)c3n2)CC1 [compound 149, trans-4-[2-(4-Amino-cyclohexylamino)-9-cyclopentyl-9H-purin-6-ylamino]-piperidine-1-carboxylic acid (4-trifluoromethyl-phenyl)-amide dihydrochloride] | 7.04 | 0.32 | 0.03 | 0.26 | 2089 ± 1382 |  | 2505 ± 2104 |  | 3.4 |  | 1084 ± 929 |  | 4010 ± 2371
5 | CCOC(=O)c1ccc(NC(=O)N2CCC(Nc3nc(N[C@H]4CC[C@H](N)CC4)nc4c3ncn4C3CCCC3)CC2)cc1.Cl.Cl [compound 154, trans-4-[(1-{4-[2-(4-Amino-cyclohexylamino)-9-cyclopentyl-9H-purin-6-ylamino]-piperidin-1-yl}-methanoyl)-amino]-benzoic acid ethyl ester dihydrochloride] | 6.55 | 0.24 | 0.06 | 0.23 | 1385 ± 873 | 1707 ± 721 | 2641 ± 3024 | 2950 ± 1929 | 17.8 |  |  |  | 
